# Experimental data: patent US20050058658A1, “Compositions and methods for immunotherapy of human immunodeficiency virus (HIV)” (priority 2003, published 2005)
# Columns and labels:
# [1] = system: HIV-1IIIB infected CEM-SS cells; test: p24 antigen ELISA, HIV-1 hollow fiber mouse model; type: in vivo; details: 150 mg/kg twice daily (300 mg/kg/day), day 7
# Description: (§1) The HIV-1 hollow fiber mouse model was performed (Hollingshead et al., Antiviral Res. 1995, 28:265-279; Buckheit et al., AIDS Res. Hum. Retroviruses 1997, 13:789-796; Xu et al., Bioorg. Med. Chem. Lett. 1999, 9:133-138; Quenelle et al., Antiviral Res. 1997, 35:123-129). In brief, CEM-SS cells were infected with HIV-1IIIB at a multiplicity of infection (MOI) of 0.0002 and sealed in hollow fibers (2×10^5 cells/fiber) immediately prior to implantation in the mice. Cell control hollow fibers (mock infected) and blank fibers (containing tissue culture medium without cells or virus) were prepared in a similar manner. Hollow fibers were implanted in the subcutaneous and intraperitoneal compartments of the mice (three fibers/compartment/mouse). Mice were treated with the E. tenella protein extract once daily (0.1 mL/10 g body weight) on day 0 (immediately prior to implantation of the fibers) and on days 1-6. Cell control, virus control and blank control mice were dosed similarly using 30 mM Hepes. AZT treated mice were also dosed similarly, however, dosing was performed twice daily at a concentration of 150 mg/kg (300 mg/kg/day). On day seven post implantation, the fibers, blood samples and peritoneal wash were collected from the mice. The viability of the infected CEM-SS cells collected from hollow fibers was determined using an MTT dye conversion assay. Viral reverse transcriptase assay and p24 (capsid) antigen quantification were performed on the hollow fiber cultures as well as the blood samples and the peritoneal wash. Of the three fibers collected from each compartment (intraperitoneal and subcutaneous), one fiber was used for analysis of viral reverse transcriptase and p24, while the remaining two fibers used to analyze cell viability by MTT dye reduction. The experimental treatment groups used in the study included the following: • 1. E. tenella protein extract concentration #1 (virus infected fibers; 7 mice) • 2. E. tenella protein extract concentration #2 (virus infected fibers; 7mice) • 3. E. tenella protein extract concentration #3 (virus infected fibers; 7 mice) • 4. AZT; positive control antiviral drug (virus infected fibers; 7 mice) • 5. Virus Control, no drug treatment (treated with vehicle; virus infected fibers; 7 mice) • 6. Cell Control, no drug treatment (treated with vehicle; mock-infected fibers; 7 mice) • 7. Blank Control, no drug treatment (treated with vehicle; “empty” fibers; 2 mice) MTT Staining for Cell Viability:
# Following collection of the fibers from the mice, detection of p24 antigen was performed according to the manufacturer's instructions. Individual fibers were cut open and placed in Eppendorf tubes and cells lysed by the addition of 250 μl of lysis buffer (0.02 M Tris-HCl pH 7.5, 0.05 M NaCl, 0.5% Triton X-100), incubation at room temperature for 30 minutes, vortexing, followed by centrifugation at 14,000 rpm for four minutes in a microcentrifuge. Serum and peritoneal wash samples were clarified by centrifugation without further manipulation prior to analysis. All p24 determinations on the resulting supernatants were performed following serial dilution of the samples to ensure absorbances in the linear range of the standard p24 antigen curve. The standard curve is produced using manufacturer-supplied standards and instructions. Data are obtained by spectrophotometric analysis at 450/570 nm using a Molecular Devices Vmax or SpectraMaxPlus plate reader. Final concentrations are calculated from the optical density values using the Molecular Devices SoftMax Pro software package and expressed in pg/ml p24 antigen.
# [2] = system: HIV-1IIIB infected CEM-SS cells; test: Reverse transcriptase assay, HIV-1 hollow fiber mouse model; type: in vivo; details: 150 mg/kg twice daily (300 mg/kg/day), day 7
# Description: as §1
# A microtiter plate-based reverse transcriptase (RT) reaction was utilized (Buckheit et al., AIDS Research and Human Retroviruses 1991, 7:295-302). Tritiated thymidine triphosphate (^3H-TTP 80 Ci/mmol, NEN) was received in 1:1 dH2O: Ethanol at 1 mCi/mL. Poly rA:oligo dT template:primer (Pharmacia) was prepared as a stock solution by combining 150 μL poly rA (20 mg/mL) with 0.5 mL oligo dT (20 units/mL) and 5.35 mL sterile dH2O followed by aliquoting (1.0 mL) and storage at −20° C. The RT reaction buffer was prepared fresh on a daily basis and consisted of 125 μL 1.0 M EGTA, 125 μL dH2O, 125 μL 20% Triton X100, 50 μL 1.0 M Tris (pH 7.4), 50 μL 1.0 M DTT, and 40 μL 1.0 M MgCl2. The final reaction mixture was prepared by combining 1 part ^3H-TTP, 4 parts dH2O, 2.5 parts poly rA:oligo dT stock and 2.5 parts reaction buffer. Ten microliters of this reaction mixture was placed in a round bottom microtiter plate and 15 μL of supernatant resulting from the lysis of cells collected from the fibers (see the section describing the p24 Antigen ELISA above) or serum or peritoneal wash (serum and peritoneal wash samples were clarified by centrifugation without further manipulation prior to analysis) was added and mixed. The plate was incubated at 37° C. for 60 minutes. […]
# [3] = system: HIV-1IIIB infected CEM-SS cells; test: MTT staining for cell viability, HIV-1 hollow fiber mouse model; type: in vivo
# Description: as §1
# The viability of cells in the hollow fiber cultures was measured using an MTT dye reduction assay. MTT is a tetrazolium dye that is metabolized by the mitochondria enzymes of metabolically active cells to yield a […] formazan product that can be detected spectrophotometrically. Following collection from the animals, hollow fibers were placed individually into the wells of a 6-well tissue culture plate containing 2 mL of pre-warmed (37° C.) RPMI medium (without phenol red) supplemented with 20% fetal bovine serum. Cells were assayed to viability by adding 180 μL of MTT stock solution (pre-warmed to 37° C.) to each of the wells, followed by incubation for 4 hours at 37° C. in a 5% CO2 atmosphere, removal of medium/MTT solution, and addition of 4 mL of 2.5% Protamine Sulfate (PMS). […] Subsequently, 150 μL of each sample was transferred to a 96 well plate and the optical density of the samples read at 570/650 nm using a Molecular Devices Vmax or SpectraMaxPlus plate reader.
# [4] = system: experimental autoimmune encephalomyelitis (EAE); test: Experimental autoimmune encephalomyelitis (EAE) model; type: in vivo, SJL mice; details: 5 mg s.c. daily for 5 days from day 10
# Description: This hyposthesis was tested in the experimental autoimmune encephalomyelitis (EAE) model in SJL mice. EAE is induced in mice by immunization with spinal cord derived myelin basic protein which induces a disease in the mice which is very similar to multiple schlerosis (MS) in humans.
# Treatments were given daily for 5 days. Linomide is a drug that is known to inhibit EAE and is used as a positive control. […] Severity of EAE is measured by means of the EAE score which starts at 0 for normal and increases to a score of 5 when death occurs. For ethical reasons mice are sacrificed when a score of 4 is reached.
# [5] = 150 mg/kg twice daily (300 mg/kg/day), day 7
# [6] = 150 mg/kg twice daily (300 mg/kg/day), fibers day 7, optical density 570/650 nm
compound,measurement,setting,value
"Cc1cn([C@H]2C[C@H](N=[N+]=[N-])[C@@H](CO)O2)c(=O)[nH]c1=O [AZT, 3′-Azido-3′-deoxythymidine]","p24 Intraperitoneal Fiber, % Virus Control, % Value",[1],99.1%
same,"p24 Intraperitoneal Fiber, Average",[1],215136 pg/mL
same,"p24 Peritoneal Wash, % Virus Control, % Value",[1],92.8%
same,"p24 Peritoneal Wash, Average",[1],109 pg/mL
same,"p24 Serum, % Virus Control, % Value",[1],37.0%
same,"p24 Serum, Average",[1],18 pg/mL
same,"p24 Subcutaneous Fiber, % Virus Control, % Value",[1],110.3%
same,"p24 Subcutaneous Fiber, Average",[1],312334 pg/mL
same,"Reverse Transcriptase Intraperitoneal Fiber, % Virus Control, % Value",[2],52.8%
same,"Reverse Transcriptase Intraperitoneal Fiber, Average",[2],6372 CPM
same,"Reverse Transcriptase Peritoneal Wash, % Virus Control, % Value",[2],25.7%
same,"Reverse Transcriptase Peritoneal Wash, Average",[2],392 CPM
same,"Reverse Transcriptase Serum, % Virus Control, % Value",[2],52.8%
same,"Reverse Transcriptase Serum, Average",[2],403 CPM
same,"Reverse Transcriptase Subcutaneous Fiber, % Virus Control, % Value",[2],71.9%
same,"Reverse Transcriptase Subcutaneous Fiber, Average",[2],10178 CPM
same,"MTT Intraperitoneal Fiber, % CPE Reduction, % Value",[3]; [5],0.00%
same,"MTT Subcutaneous Fiber, % CPE Reduction, % Value",[3]; [5],6.83%
same,"MTT Intraperitoneal Fiber, Average",[3]; [6],1.11
same,"MTT Subcutaneous Fiber, Average",[3]; [6],0.96
same,Effect on cytopathic effect (CPE) of HIV-1IIIB on CEM-SS cells,"[3]; hollow fiber cultures, all concentrations tested",did not have an effect on this viral endpoint
CN(C(=O)c1c(O)c2ccccc2n(C)c1=O)c1ccccc1 [Linomide],Day 15 EAE Score ± SD,[4],0.6 ± 1.3
